How the values were obtained:
[1] = test system: Raf/Mek/Erk pathway in K562 cells; assay: Western blot, Raf/Mek/Erk pathway as a whole; format: cell-based, human; details: 50 μM, after 4 hours of treatment
Experimental: (§1) K562 leukemia cells were serum starved for 18 hours prior to cucurbitacin B treatment. The cells were incubated at a 75-mm culture flask filled with 10 ml growth medium (RPMI with 10% FBS and 1% PS) at the cell density of 1×10^5 cells/ml in the presence or absence of cucurbitacin B for various time intervals. The drug treatment were terminated by centrifugation at 1500 rpm for 5 minutes and the cells were rinsed twice with phosphate-buffered saline and lysed at 4° C. in a lysis buffer containing 50 mM Tris-HCl, pH7.5, […], 5 mM EDTA, 40 mM NaP2O7, 1% Triton X-100, 1 mM dithiothreitol, […], 100 μM phenylmethylsulfonyl fluoride, 2 μg/ml leupeptin, 4 μg/ml aprotinin and 0.7 μg/ml pepstatin. The insoluble protein lysate were removed by centrifugation for 10 minutes at 13000 rpm. Fifteen micrograms of protein lysate was resolved using SDS-polyacryamide gel electrophoresis (PAGE) (usually 8%-12% polyacrylamide gel) and then subjected to western blot analysis. Western blots were performed with antibodies specific for phosphorylated and total Stat3, c-Raf, Mek, and Erk. […]
(§2) In order to further investigate if cucurbitacin B block the Stat3 activation is truly through Erk pathway in K562 cells, the ability of cucurbitacin B to inhibit the Ras/Raf/Mek/Erk pathway was determined by measuring Ras-GTP, phosphorylation of c-Raf, Mek1/2, Erk1/2 and Elk-1 in K562 cells. […]

[2] = test system: Erk1/2 activation in K562 cells; assay: Western blot of phosphorylated and total Erk1/2; format: cell-based, human; details: 50 μM, 5 minutes treatment
Experimental: as §1, §2

[3] = test system: Stat3 activation in K562 cells; assay: Western blot of phosphorylated and total Stat3; format: cell-based, human; details: 50 μM
Experimental: K562 leukemia cells were serum starved for 18 hours prior to cucurbitacin B treatment. The cells were incubated at a 75-mm culture flask filled with 10 ml growth medium (RPMI with 10% FBS and 1% PS) at the cell density of 1×10^5 cells/ml in the presence or absence of cucurbitacin B for various time intervals. The drug treatment were terminated by centrifugation at 1500 rpm for 5 minutes and the cells were rinsed twice with phosphate-buffered saline and lysed at 4° C. in a lysis buffer containing 50 mM Tris-HCl, pH7.5, […], 5 mM EDTA, 40 mM NaP2O7, 1% Triton X-100, 1 mM dithiothreitol, […], 100 μM phenylmethylsulfonyl fluoride, 2 μg/ml leupeptin, 4 μg/ml aprotinin and 0.7 μg/ml pepstatin. The insoluble protein lysate were removed by centrifugation for 10 minutes at 13000 rpm. Fifteen micrograms of protein lysate was resolved using SDS-polyacryamide gel electrophoresis (PAGE) (usually 8%-12% polyacrylamide gel) and then subjected to western blot analysis. Western blots were performed with antibodies specific for phosphorylated and total Stat3, c-Raf, Mek, and Erk. The blots were developed with the Enhanced Chemiluminescence Plus (ECL Plus) detection system (Amersham).
15 μg cell lysate of each sample was separated in 8% SDS-PAGE followed by immuno-blotting with anti-Stat3 antibodies to detect the phosphorylated form of Stat3 as well as its total expression level.
Cells were serum starved for 18 hours followed by treated with 50 μM cucurbitacin B for 10 minutes, 30 minutes, 1 hour and 4 hours, respectively. 15 μg cell lysate of each sample was separated in 8% SDS-PAGE followed by immuno-blotting with anti-Stat3 antibodies to detect the phosphorylated form of Stat3 as well as its total expression level.

[4] = test system: Elk-1 activation in K562 cells; assay: Phosphorylation of Elk-1; format: cell-based, human; details: 50 μM, 5 minutes treatment
Experimental: (§3) In order to further investigate if cucurbitacin B block the Stat3 activation is truly through Erk pathway in K562 cells, the ability of cucurbitacin B to inhibit the Ras/Raf/Mek/Erk pathway was determined by measuring Ras-GTP, phosphorylation of c-Raf, Mek1/2, Erk1/2 and Elk-1 in K562 cells. The cells were incubated with 50 μM cucurbitacin B for the indicated time intervals (2 minutes, 5 minutes, 10 minutes, 30 minutes, 1 hour and 4 hours). 15 μg cell lysates were subjected to western blot analysis for phosphorylation and total c-Raf, Mek1/2, Erk1/2.

[5] = test system: Human leukemia cell lines CCRF-CEM, K562, MOLT-4, RPMI-8226 and SR; assay: Cell proliferation assay using SRB, 5 human leukemia cell lines; format: cell-based; details: 48 hours treatment, range over the 5 cell lines, read-out: GI50 (growth inhibition), all leukemia cell lines
Experimental: (§4) Human leukemia cell lines CCRF-CEM, K562, MOLT-4, RPMI-8226 and SR, purchased from the National Cancer Institute (NCI), were cultured in RPMI 1640 medium supplemented with 5% (v/v) fetal […] and 100 units/ml penicillin and 100 units/ml streptomycin in a humidified 5% CO2 atmosphere at 37° C.
(§5) All 5 human leukemia cells were screened by the cell proliferation assay using SRB to quantitative cell protein mass following cucurbitacin B treatment. The experiments were repeated in triplicate. Appropriate number of cells (depends on the doubling time of cells) were seeded into a 96-well tissue culture plate and growth in the indicated medium in presence of different dosages of cucurbitacin B for 2 days. Afterwards 25 μl 80% TCA reagent was added into each well to fix the cells and the plates were incubated at 4° C. at least for 1 hour. Then the plates were washed with tap water and air dried. […] The plates were air dried and dissolved by 100 μl 10 mM Trizma-base solution and the absorbance was measured at 515 nm using FLUOstar OPTIMA equipment.
(§6) Appropriate number of cell density were seeded into a 96 well culture plate and treated with different doses of cucurbitacin B for 2 days. The growth inhibition effects of cucurbitacin B on the cells were detected using SRB.

[6] = test system: K562 cells; assay: Flow cytometry for apoptosis analysis (Annexin V / PI); format: cell-based, human; details: 80 nM, 48 hours, K562, Anx.V/PI
Experimental: (§7) 10^5/ml K562 cells were treated with cucurbitacin B in the presence of complete medium containing 10% FBS for 48 hours. The changes in cell morphology were visualized using Leica DMIL (Leica Microsystem). Cells were harvested and rinsed twice with ice-cold PBS (pH7.4) and a total 2.5×10^5 K562 cells were stained with 10 μl Annexin V and 10 μl propidium iodide in 100 μl 1× binding buffer for 15 minutes in dark and then subjected to apoptosis analysis with FACSCalibar Flow cytometer system (FACS Calibur BD Flow Cytometer).
Appropriate number of cell density were seeded into T-25 culture flask and treated with different doses of cucurbitacin B for 2 days. The apoptotic effects of cucurbitacin B on the cells were detected using Flow Cytometry analysis after stained with Anx.V and PI for 15 minutes. […] Cucuribitacin B induced apoptosis in a dose dependent manner, among them, 80 nM induced the highest apoptotic effect in K562 cells, with over 50% cells in apoptotic population and 10% cells in the necrotic population (late apoptotic and necrotic phase). The effect of cucurbitacin B on apoptosis and cell cycle profile in K562 cells were analyzed using flow cytometry, as depicted in FIG. 3.

[7] = test system: K562; assay: Cell proliferation assay using SRB, K562; format: cell-based; details: Homo sapiens, K562, 48 hours treatment, read-out: GI50 (growth inhibition)
Experimental: as §4, §5, §6

[8] = test system: K562 cells; assay: Cell morphology by microscopy (Leica DMIL, 400x); format: cell-based, human; details: 48 hours
Experimental: as §7
After 48 hours of cucurbitacin B treatment, the cells were viewed using a Leica DMIL microscope at 400× magnification. […] However, the treated cells lost the rounded shape and shrank in size at the highest dose of cucurbitacin B used (80 nM).

[9] = test system: c-Raf activation in K562 cells; assay: Western blot of phosphorylated and total c-Raf; format: cell-based, human; details: 50 μM, 5 minutes treatment
Experimental: as §1, §2

[10] = test system: Mek1/2 activation in K562 cells; assay: Western blot of phosphorylated and total Mek1/2; format: cell-based, human; details: 50 μM, 5 minutes treatment
Experimental: as §1, §2

[11] = test system: Ras-GTP activation in K562 cells; assay: GTPase pull-down assay (GST-Raf1-RBD), Ras-GTP content; format: cell-based, human; details: 50 μM, 2 minutes to 4 hours
Experimental: Lysate with 500 μg protein were used to determined the Ras-GTP content by the Glutathione S-transferase (GST)-RBD (Ras-binding domain of Raf) pull down assay. The treated and control cells were lysed in lysis buffer (25 mMTris-HCl, pH7.5, 150 mM NaCl, 5 mMMgCl2, 1% NP-40, 1 mM DTT and 5% glycerol) for 5 minutes at 4° C. Soluble cell lysates were obtained by centrifuged at 17000 g for 5 minutes. 500 μg cell lysate were collected and incubated with 80 μg GST-Raf1-RBD in 50 mM Tris-HCl, pH7.2, 150 mMNaCl, 0.5% Triton X-100, 5 mMMgCl2, 1 mMDTT and 10% glycerol for 1 hour at 4° C. The beads were washed with lysis buffer for 3 times and then resuspended and boiled in 2× sample buffer at 100° C. for 5 minutes. 25 μl supernatants were collected by centrifuged at 7200 g for 2 minutes and then resolved in 15% SDS-PAGE followed by western blot analysis using anti-Ras antibody.
as §3, with “15 μg cell lysates were subjected to western blot analysis for phosphorylation and total c-Raf, Mek1/2, Erk1/2.” left out

[12] = test system: K562 cells; assay: Flow cytometry for cell cycle analysis (PI); format: cell-based, human; details: 80 nM, 48 hours, K562, serum starved 24 hours
Experimental: K562 cells were serum starved for 24 hours prior to cucurbitacin B treatment. After 48 hours of treatment, the cells were collected and rinsed twice with phosphate-buffer saline and fixed with 80% ice-cold ethanol for 1 hour at 4° C. overnight.
Then, the cells were stained with propidium iodine at 1 mg/ml for 15 minutes at room temperature. The stained cells were analyzed by flow cytometry (FACS Calibur BD Flow Cytometer)
Appropriate numbers of cell density were serum starved for 24 hours prior to treatment with different doses of cucurbitacin B for 2 days. The cell cycle analysis profile of K562 cells after cucurbitacin B treatment were detected using Flow Cytometry analysis after fixed with 80% ice-cold ethanol at 4° C. and then stained with PI for 15 minutes.

Compound: CC(=O)OC(C)(C)/C=C/C(=O)[C@](C)(O)C1[C@H](O)C[C@@]2(C)C3CC=C4C(C[C@H](O)C(=O)C4(C)C)[C@]3(C)C(=O)C[C@]12C (some centres unmarked) [cucurbitacin B]
- inhibition of the Raf/Mek/Erk pathway [1]: Complete inhibition
- inhibition of activation of Erk1/2 [2]: significantly inhibited
- time of peak inhibition of Stat3 activation [3]: 4 h
- inhibition of Stat3 activation, time course ([3]; 10 minutes to 30 minutes): No significant change
- inhibition of Stat3 activation, time course ([3]; 1 hour treatment): inhibited Stat3 activation
- inhibition of Stat3 activation (phospho-Stat3) ([3]; 4 hours, only the highest of 1, 5, 50 μM): significant inhibited
- inhibition of activation of Elk-1 [4]: significantly inhibited
- GI50 [5]: 15.6 to 35.3 nM
- cells in apoptotic population [6]: over 50%
- cells in the necrotic population (late apoptotic and necrotic phase) [6]: 10%
- GI50 [7]: 15.6 nM
- change in cell morphology ([8]; 20 nM and 40 nM): increase in cell size
- change in cell morphology ([8]; 80 nM): shrinkage of cell size
- inhibition of activation of c-Raf [9]: significantly inhibited
- inhibition of activation of Mek1/2 [10]: significantly inhibited
- change of Ras-GTP activation [11]: no significant change
- percentage of cells in the G2/M phase [12]: 70%

— patent US20080234244A1, “CU[…] AND USES THEREOF” (priority 2007, published 2008)
